doi:10.1101/2025.05.09.652710v1 (bioRxiv, 2025)

Key:
TMPRSS2 = TMPRSS2 (Homo sapiens, UniProt O15393, Q253D/R252D/R255K/S251D/S254D); assay: Fluorogenic kinetic enzyme inhibitor assay, TMPRSS2; type: biochemical
[1] = test system: influenza A virus strain A/California/4/2009 (pdmH1N1); conditions: for H1N1 titer Log fold reduction (1 μM): virus strain A/California/4/2009 (pdmH1N1, 72 h, 1 μM); for H1N1 titer Log fold reduction (10 μM): virus strain A/California/4/2009 (pdmH1N1, 72 h, 10 μM)
HGFA = target: T1, HGFA (Homo sapiens, UniProt Q04756); assay: Fluorogenic kinetic enzyme inhibitor assay, HGFA; type: biochemical
T1 sequence (Q04756 373-655): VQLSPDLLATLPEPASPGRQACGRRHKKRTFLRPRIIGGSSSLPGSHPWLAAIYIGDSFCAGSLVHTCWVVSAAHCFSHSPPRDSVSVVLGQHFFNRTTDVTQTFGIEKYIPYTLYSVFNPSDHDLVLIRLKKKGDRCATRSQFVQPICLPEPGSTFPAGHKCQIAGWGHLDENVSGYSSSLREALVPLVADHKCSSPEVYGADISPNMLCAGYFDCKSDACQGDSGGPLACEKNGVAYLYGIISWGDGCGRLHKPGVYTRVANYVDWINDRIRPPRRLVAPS

thrombin = thrombin (Homo sapiens, UniProt P00734); assay: Chromogenic kinetic enzyme assay, thrombin; type: biochemical
[2] = test system: chimeric VSV SARS-CoV-2 virus; conditions: for EC50: chimeric VSV virus
matriptase = target: T2, matriptase (Homo sapiens, UniProt Q9Y5Y6); assay: Fluorogenic kinetic enzyme inhibitor assay, matriptase; type: biochemical
T2 sequence (Q9Y5Y6 615-855): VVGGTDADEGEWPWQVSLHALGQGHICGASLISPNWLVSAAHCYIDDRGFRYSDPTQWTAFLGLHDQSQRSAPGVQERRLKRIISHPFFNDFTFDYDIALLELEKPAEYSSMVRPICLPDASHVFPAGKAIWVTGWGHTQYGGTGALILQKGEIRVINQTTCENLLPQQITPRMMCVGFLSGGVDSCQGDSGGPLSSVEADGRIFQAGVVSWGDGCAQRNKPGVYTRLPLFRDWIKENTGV

hepsin = hepsin (Homo sapiens, UniProt P05981); assay: Fluorogenic kinetic enzyme inhibitor assay, hepsin; type: biochemical
hepsin, sequence (P05981 163-417 limits assumed): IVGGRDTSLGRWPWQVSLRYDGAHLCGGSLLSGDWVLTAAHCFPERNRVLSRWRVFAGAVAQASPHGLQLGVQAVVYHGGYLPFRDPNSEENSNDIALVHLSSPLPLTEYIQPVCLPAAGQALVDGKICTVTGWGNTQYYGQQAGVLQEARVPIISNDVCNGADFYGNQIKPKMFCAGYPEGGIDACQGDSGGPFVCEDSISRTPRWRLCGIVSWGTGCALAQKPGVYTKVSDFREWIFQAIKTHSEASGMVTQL
hepsin, sequence (P05981 45-162 partner limits assumed): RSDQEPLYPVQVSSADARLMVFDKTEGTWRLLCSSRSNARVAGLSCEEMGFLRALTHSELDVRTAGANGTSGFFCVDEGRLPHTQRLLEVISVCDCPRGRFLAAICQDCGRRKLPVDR

TMPRSS2, sequence (O15393 109-492 S251D/R252D/Q253D/S254D/R255K limits assumed): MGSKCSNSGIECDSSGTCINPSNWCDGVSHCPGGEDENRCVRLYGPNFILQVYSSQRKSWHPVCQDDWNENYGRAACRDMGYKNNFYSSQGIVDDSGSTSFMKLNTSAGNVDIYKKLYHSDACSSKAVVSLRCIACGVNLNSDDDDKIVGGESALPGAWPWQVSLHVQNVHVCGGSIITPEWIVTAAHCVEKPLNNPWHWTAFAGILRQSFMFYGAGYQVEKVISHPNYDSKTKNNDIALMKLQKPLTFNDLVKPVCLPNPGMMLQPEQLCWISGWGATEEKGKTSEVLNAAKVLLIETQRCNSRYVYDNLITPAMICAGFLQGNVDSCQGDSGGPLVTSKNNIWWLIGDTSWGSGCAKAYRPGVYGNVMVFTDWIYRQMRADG

N=C(N)NCCC[C@H](NC(=O)[C@H](Cc1ccccc1)NC(=O)[C@H](CCC(N)=O)NC(=O)Cc1ccccc1)C(=O)c1nc2ccccc2s1 [CA1018, PhAc-QFR-kbt]
IC50 (TMPRSS2): 0.41 nM

N=C(N)NCCC[C@H](NC(=O)[C@H](Cc1ccccc1)NC(=O)[C@H](CCC(N)=O)NCc1ccccc1)C(=O)c1nc2ccccc2s1 [CA1022, Bn-QFR-kbt]
IC50 (TMPRSS2): 0.99 nM

N=C(N)NCCC[C@H](NC(=O)[C@H](Cc1ccccc1)NC(=O)[C@H](CCC(N)=O)NCCc1ccccc1)C(=O)c1nc2ccccc2s1 [CA1033, PhCH2CH2-QFR-kbt]
IC50 (TMPRSS2): 0.32 nM

CN(C)[C@@H](CCC(N)=O)C(=O)N[C@@H](Cc1ccccc1)C(=O)N[C@@H](CCCNC(=N)N)C(=O)c1nc2ccccc2s1 [CA1041, Dimethyl-QFR-kbt]
IC50 (TMPRSS2): 0.86 nM

N=C(N)NCCC[C@H](NC(=O)[C@H](Cc1ccccc1)NC(=O)[C@H](CCC(N)=O)NC(=O)c1ccccc1)C(=O)c1nc2ccccc2s1 [CA1043, Bz-QFR-kbt]
IC50 (TMPRSS2): 0.08 nM | H1N1 Fold inhibition @ 0.001 μM [1]: 1 | H1N1 Fold inhibition @ 0.01 μM [1]: 1 | H1N1 Fold inhibition @ 0.1 μM [1]: 5 | H1N1 Fold inhibition @ 1 μM [1]: 968 | H1N1 Fold inhibition @ 10 μM [1]: 774 | H1N1 titer Log fold reduction (1 μM) [1]: 3.1 | H1N1 titer Log fold reduction (10 μM) [1]: 3.0

N=C(N)NCCC[C@H](NC(=O)[C@H](Cc1ccccc1)NC(=O)[C@H](CCC(N)=O)N1CCCCC1)C(=O)c1nc2ccccc2s1 [CA1046, Pip-QFR-kbt]
IC50 (TMPRSS2): 8.2 nM

CS(=O)(=O)N[C@@H](CCC(N)=O)C(=O)N[C@@H](Cc1ccccc1)C(=O)N[C@@H](CCCNC(=N)N)C(=O)c1nc2ccccc2s1 [MF1099, MeSO2-QFR-kbt, reference compound]
IC50 (HGFA): 341 nM

N=C(N)NCCC[C@H](NC(=O)[C@H](Cc1ccccc1)NC(=O)[C@H](CCC(N)=O)NS(=O)(=O)c1ccccc1)C(=O)c1nc2ccccc2s1 [MF1101, PhSO2-QFR-kbt]
IC50 (TMPRSS2): 1 nM | IC50 (HGFA): 17 nM | H1N1 Fold inhibition @ 0.001 μM [1]: 1 | H1N1 Fold inhibition @ 0.01 μM [1]: 1 | H1N1 Fold inhibition @ 0.1 μM [1]: 4 | H1N1 Fold inhibition @ 1 μM [1]: 1014 | H1N1 Fold inhibition @ 10 μM [1]: 1321 | H1N1 titer Log fold reduction (1 μM) [1]: 2.9 | H1N1 titer Log fold reduction (10 μM) [1]: 3.3

N=C(N)NCCC[C@H](NC(=O)[C@H](Cc1ccccc1)NC(=O)[C@H](CCC(N)=O)NS(=O)(=O)C1CC1)C(=O)c1nc2ccccc2s1 [MF1104, CypSO2-QFR-kbt]
IC50 (TMPRSS2): 0.27 nM | IC50 (HGFA): 4.2 nM | H1N1 Fold inhibition @ 0.001 μM [1]: 1 | H1N1 Fold inhibition @ 0.01 μM [1]: 2 | H1N1 Fold inhibition @ 0.1 μM [1]: 1 | H1N1 Fold inhibition @ 1 μM [1]: 617 | H1N1 Fold inhibition @ 10 μM [1]: 916 | H1N1 titer Log fold reduction (1 μM) [1]: 2.9 | H1N1 titer Log fold reduction (10 μM) [1]: 3.0

N=C(N)NCCC[C@H](NC(=O)[C@H](Cc1ccccc1)NC(=O)[C@H](CCC(N)=O)NS(=O)(=O)Cc1ccccc1)C(=O)c1nc2ccccc2s1 [MF1105, BnSO2-QFR-kbt]
IC50 (TMPRSS2): 0.07 nM | IC50 (HGFA): 6.5 nM | IC50 (thrombin): > 20000 nM

CC(=O)NCC(=O)N[C@@H](CCC(N)=O)C(=O)N[C@@H](Cc1ccccc1)C(=O)N[C@@H](CCCNC(=N)N)C(=O)c1nc2ccccc2s1 [MM3122, Ac-GQFR-kbt]
IC50 (TMPRSS2): 0.03 nM | VSV SARS-CoV-2 Chimera EC50 [2]: below nM | EC50 [2]: 0.43 nM | H1N1 Fold inhibition @ 0.001 μM [1]: 2.1 | H1N1 Fold inhibition @ 0.01 μM [1]: 4.2 | H1N1 Fold inhibition @ 0.1 μM [1]: 27.5 | H1N1 Fold inhibition @ 1 μM [1]: 2216 | H1N1 Fold inhibition @ 10 μM [1]: 2952 | H1N1 titer Log fold reduction (1 μM) [1]: 3.4 | H1N1 titer Log fold reduction (10 μM) [1]: 4.3

CC(=O)N1CCC[C@H]1C(=O)N[C@@H](CCC(N)=O)C(=O)N[C@@H](Cc1ccccc1)C(=O)N[C@@H](CCCNC(=N)N)C(=O)c1nc2ccccc2s1 [MM3123, Ac-PQFR-kbt]
IC50 (TMPRSS2): 0.06 nM | VSV SARS-CoV-2 Chimera EC50 [2]: below nM | EC50 [2]: 0.86 nM | H1N1 titer Log fold reduction (1 μM) [1]: 1.3 | H1N1 titer Log fold reduction (10 μM) [1]: 2.6

CSCC[C@H](NC(C)=O)C(=O)N[C@@H](CCC(N)=O)C(=O)N[C@@H](Cc1ccccc1)C(=O)N[C@@H](CCCNC(=N)N)C(=O)c1nc2ccccc2s1 [MM3130, Ac-MQFR-kbt]
IC50 (TMPRSS2): 0.14 nM | EC50 [2]: 48 nM | H1N1 Fold inhibition @ 0.1 μM [1]: 1 | H1N1 Fold inhibition @ 1 μM [1]: 27 | H1N1 Fold inhibition @ 10 μM [1]: 510 | H1N1 titer Log fold reduction (1 μM) [1]: 1.4 | H1N1 titer Log fold reduction (10 μM) [1]: 2.7

CC(=O)N[C@@H](CC(C)C)C(=O)N[C@@H](CCC(N)=O)C(=O)N[C@@H](Cc1ccccc1)C(=O)N[C@@H](CCCNC(=N)N)C(=O)c1nc2ccccc2s1 [MM3131, Ac-LQFR-kbt]
IC50 (TMPRSS2): 0.03 nM | EC50 [2]: 11 nM

CC[C@H](C)[C@H](NC(C)=O)C(=O)N[C@@H](CCC(N)=O)C(=O)N[C@H](C(=O)N[C@@H](CCCNC(=N)N)C(=O)c1nc2ccccc2s1)C(C)C [MM3180, Ac-IQVR-kbt]
IC50 (TMPRSS2): 0.03 nM | IC50 (matriptase): 0.76 nM | IC50 (hepsin): 0.11 nM | IC50 (HGFA): 799 nM | IC50 (thrombin): > 20000 nM | EC50 [2]: 12 nM | H1N1 Fold inhibition @ 0.1 μM [1]: 2 | H1N1 Fold inhibition @ 1 μM [1]: 135 | H1N1 Fold inhibition @ 10 μM [1]: 359 | H1N1 titer Log fold reduction (1 μM) [1]: 2.1 | H1N1 titer Log fold reduction (10 μM) [1]: 2.6

CC(=O)N1CCC[C@H]1C(=O)N[C@@H](CO)C(=O)N[C@@H](CCCCN)C(=O)N[C@@H](CCCNC(=N)N)C(=O)c1nc2ccccc2s1 [MM3194, Ac-PSKR-kbt]
IC50 (TMPRSS2): 0.29 nM | IC50 (thrombin): > 20000 nM | EC50 [2]: 613 nM | H1N1 Fold inhibition @ 0.1 μM [1]: 1 | H1N1 Fold inhibition @ 1 μM [1]: 1 | H1N1 Fold inhibition @ 10 μM [1]: 4 | H1N1 titer Log fold reduction (1 μM) [1]: 0 | H1N1 titer Log fold reduction (10 μM) [1]: 0.60

CC[C@H](C)[C@H](NC(C)=O)C(=O)N[C@@H](CO)C(=O)N[C@@H](Cc1ccccc1)C(=O)N[C@@H](CCCNC(=N)N)C(=O)c1nc2ccccc2s1 [MM4009, Ac-ISFR-kbt]
IC50 (TMPRSS2): 0.07 nM | IC50 (matriptase): 4.7 nM | IC50 (hepsin): 0.86 nM | IC50 (HGFA): 182 nM | IC50 (thrombin): > 20000 nM | EC50 [2]: 40 nM | H1N1 Fold inhibition @ 0.1 μM [1]: 2 | H1N1 Fold inhibition @ 1 μM [1]: 3 | H1N1 Fold inhibition @ 10 μM [1]: 743 | H1N1 titer Log fold reduction (1 μM) [1]: 0.62 | H1N1 titer Log fold reduction (10 μM) [1]: 3.4

CC[C@H](C)[C@H](NC(C)=O)C(=O)N[C@@H](CCSC)C(=O)N[C@@H](Cc1ccccc1)C(=O)N[C@@H](CCCNC(=N)N)C(=O)c1nc2ccccc2s1 [MM4027, Ac-IMFR-kbt]
IC50 (TMPRSS2): 3 nM | IC50 (matriptase): 0.51 nM | IC50 (hepsin): 1.3 nM | IC50 (thrombin): > 20000 nM | EC50 [2]: 92 nM

CC[C@H](C)[C@H](NC(C)=O)C(=O)N[C@@H](CCSC)C(=O)N[C@@H](Cc1ccccc1)C(=O)N[C@H](CCCNC(=N)N)C(=O)c1nc2ccccc2s1 [MM4027-1, Ac-IMFdR-kbt]
IC50 (TMPRSS2): 5.63 nM | IC50 (matriptase): 16.1 nM | IC50 (hepsin): 3.16 nM | IC50 (HGFA): 234 nM | IC50 (thrombin): > 20000 nM

CC[C@H](C)[C@H](NC(C)=O)C(=O)N[C@H](C(=O)N[C@@H](Cc1ccccc1)C(=O)N[C@@H](CCCNC(=N)N)C(=O)c1nc2ccccc2s1)[C@@H](C)O [MM4028, Ac-ITFR-kbt]
IC50 (TMPRSS2): 0.06 nM | IC50 (matriptase): 4.7 nM | IC50 (hepsin): 0.86 nM | IC50 (HGFA): 182 nM | IC50 (thrombin): > 20000 nM | EC50 [2]: 103 nM

CC[C@H](C)[C@H](NC(C)=O)C(=O)N[C@H](C(=O)N[C@@H](Cc1ccccc1)C(=O)N[C@H](CCCNC(=N)N)C(=O)c1nc2ccccc2s1)[C@@H](C)O [MM4028-1, Ac-ITFdR-kbt]
IC50 (TMPRSS2): 1.42 nM | IC50 (HGFA): 1120 nM | IC50 (thrombin): > 20000 nM

CC[C@H](C)[C@H](NC(C)=O)C(=O)N[C@@H](CCC(=O)O)C(=O)N[C@@H](Cc1ccccc1)C(=O)N[C@@H](CCCNC(=N)N)C(=O)c1nc2ccccc2s1 [MM4037, Ac-IEFR-kbt]
IC50 (TMPRSS2): 0.11 nM | IC50 (matriptase): 2.4 nM | IC50 (hepsin): 0.35 nM | IC50 (HGFA): 276 nM | IC50 (thrombin): > 20000 nM | EC50 [2]: 24 nM

CC[C@H](C)[C@H](NC(C)=O)C(=O)N[C@@H](CCC(=O)O)C(=O)N[C@@H](Cc1ccccc1)C(=O)N[C@H](CCCNC(=N)N)C(=O)c1nc2ccccc2s1 [MM4037-1, Ac-IEFdR-kbt]
IC50 (TMPRSS2): 0.38 nM | IC50 (HGFA): > 20000 nM | IC50 (thrombin): > 20000 nM

CC(=O)N[C@@H](Cc1c[nH]c2ccccc12)C(=O)N[C@@H](CC(C)C)C(=O)N[C@@H](Cc1ccccc1)C(=O)N[C@@H](CCCNC(=N)N)C(=O)c1nc2ccccc2s1 [ZFH7064, Ac-WLFR-kbt]
IC50 (TMPRSS2): 0.09 nM

N=C(N)NCCC[C@H](NC(=O)[C@H](Cc1ccccc1)NC(=O)[C@H](CCC(N)=O)NC(=O)OCc1ccccc1)C(=O)c1nc2ccccc2s1 [ZFH9141, Cbz-QFR-kbt]
IC50 (TMPRSS2): 0.42 nM | IC50 (HGFA): 85 nM | H1N1 Fold inhibition @ 0.001 μM [1]: 2 | H1N1 Fold inhibition @ 0.01 μM [1]: 6 | H1N1 Fold inhibition @ 0.1 μM [1]: 483 | H1N1 Fold inhibition @ 1 μM [1]: 578 | H1N1 Fold inhibition @ 10 μM [1]: 578 | H1N1 titer Log fold reduction (1 μM) [1]: 2.8 | H1N1 titer Log fold reduction (10 μM) [1]: 2.8
